# Test results: patent US20090062369A1, “USE OF SECRETORY PHOSPHOLIPASE A2 (SPLA2) INHIBITORS TO DECREASE SPLA2 LEVELS” (priority 2007, published 2009)
# Tested on: serum sPLA2
# Assay: Effect of twice-a-day oral A-002 on serum sPLA2 levels in subjects with stable coronary artery disease (Example 6)
# Format: in vivo, human
# Method: The protocol for preparing standard curve, test, and quality control samples for use in the assay disclosed herein is set forth in Example 5. Samples are prepared according to this protocol, then loaded in duplicate onto a plate (Cayman catalog no. 485002 or equivalent) that has been pre-coated with a monoclonal sPLA2 antibody (“capture antibody”) that specifically binds sPLA2. In certain embodiments, the capture antibody may interact with a specific form of sPLA2, such as for example sPLA2 type IIA.
# sPLA2 acetylcholinesterase:Fab′ conjugate (AChE:Fab′) (“conjugate”) (Cayman catalog no. 485000 or equivalent) is reconstituted in EIA buffer (Cayman catalog no. 400060 or equivalent). Cayman EIA buffer is 1M phosphate, pH 7.0, 1% BSA, 4M NaCl, 10 mM EDTA, and 0.1% sodium azide. Reconstituted conjugate is added to each well of the plate. The conjugate binds a different sPLA2 epitope than the capture antibody, allowing the capture antibody and the conjugate to form a “sandwich” that is immobilized on the plate. Excess reagents are washed away, and the plate is covered and incubated overnight at 2-8° C.
# Prior to development, the wells are washed five to six times with wash buffer (Cayman catalog no. 400062 or equivalent). To develop the plate, Ellman's Reagent (Cayman catalog no. 400050 or equivalent) is reconstituted in water and added to each well according to manufacturer instructions. The reconstituted Ellman's Reagent must be used the same day it is prepared because it is unstable. Ellman's Reagent contains an AChE substrate. Specifically, Ellman's Reagent contains acetylthiocholine and 5,5′-dithio-bis-(2-nitrobenzoic acid). Hydrolysis of acetylthiocholine by acetylcholinesterase produces thiocholine, which reacts with 5,5′-dithio-bis-(2-nitrobenzoic acid) to produce 5-thio-2-nitrobenzoic acid. 5-thio-2-nitrobenzoic acid has a strong absorbance at 412 nm. The intensity of absorbance at this wavelength is directly proportional to the concentration of bound conjugate, which is in turn is directly proportional to the concentration of sPLA2 present (Absorbance a [AChE:Fab′ conjugate] α [sPLA2]). During the development step, the plate is shaken, preferably in the dark. In certain embodiments the development time for the assay is 0.5 to 3 hours, preferably 1 to 1.5 hours. At the end of the development period, the high sPLA2 standards should have greater yellow color development than the zero standards. Absorbance of each well is measured at 400-420 nm using a micro-well plate reader. In certain embodiments, absorbance is measured at about 405 nm.
# Absorbance readings for duplicate wells are averaged, and the relative standard deviation and % CV are calculated. Standard curve data are used to generate a four parameter curve, and quality control and test samples are measured against the appropriate standard curve (i.e., the standard curve with the same serum content). In order for a test to be considered valid, variation between duplicate wells should be no more than about 25%, and negative controls (blanks) for each standard curve should have a mean absorbance of less than about 0.3.
# The method disclosed herein for measuring sPLA2 levels in serum was utilized to determine the effect of administering certain sPLA2 inhibitors on sPLA2 levels in 84 human subjects. The subjects included 24 subjects with diabetes, 32 subjects with metabolic syndrome, and 75 subjects receiving statin treatment. Subjects were administered the sPLA2 inhibitor A-002, a prodrug form of A-001, twice a day at varying dosages from 50 to 500 mg. The structures of A-002and A-001 are set forth below. At two weeks and four weeks after the first administration, sPLA2 levels were measured and compared to pre-administration baseline levels.
# 84 subjects with stable coronary artery disease were randomized to receive placebo or A-002 via oral administration twice a day over a four week administration period. […]
# [1] = 500 mg, non-diabetes subgroup of ITT population
# [2] = 500 mg, statin subgroup of ITT population
# [3] = A-002 (50 mg), ITT subjects exhibiting at least 3 out of 5 metabolic syndrome criteria
# [4] = A-002 (50 mg), non-statin subgroup of ITT population
# [5] = A-002 (100 mg), ITT subjects exhibiting at least 3 out of 5 metabolic syndrome criteria
# [6] = A-002 (100 mg), non-statin subgroup of ITT population
# [7] = A-002 (250 mg), ITT subjects exhibiting at least 3 out of 5 metabolic syndrome criteria
# [8] = A-002 (250 mg), non-statin subgroup of ITT population
# [9] = A-002 (500 mg), ITT subjects exhibiting at least 3 out of 5 metabolic syndrome criteria
smiles,measurement,setting,value
"CCc1c(C(=O)C(N)=O)c2c(OCC(=O)OC)cccc2n1Cc1ccccc1 [A-002, [[3-(2-Amino-1,2-dioxoethyl)-2-ethyl-1-(phenylmethyl)-1H-indol-4-yl]oxy]acetic acid methyl ester]","sPLA2 level, Week 2, Range",[1],0.05 to 0.50 ng/mL
same,"sPLA2 level, Week 4, Mean",[1],0.13 ng/mL
same,"sPLA2 level, Week 4, Median",[1],0.05 ng/mL
same,"sPLA2 level, Week 4, Range",[1],0.05 to 0.40 ng/mL
same,"sPLA2 Change from baseline at week 2, Mean",[2],-2.93 ng/mL
same,"sPLA2 Change from baseline at week 2, Median",[2],-3.30 ng/mL
same,"sPLA2 Change from baseline at week 2, Range",[2],-4.80 to -0.55 ng/mL
same,"sPLA2 Change from baseline at week 4, Mean",[2],-2.99 ng/mL
same,"sPLA2 Change from baseline at week 4, Median",[2],-3.50 ng/mL
same,"sPLA2 Change from baseline at week 4, Range",[2],-4.80 to -0.55 ng/mL
same,"sPLA2 level, Baseline, Mean",[2],3.05 ng/mL
same,"sPLA2 level, Baseline, Median",[2],3.00 ng/mL
same,"sPLA2 level, Baseline, Range",[2],0.60 to 5.40 ng/mL
same,"sPLA2 level, Week 2, Mean",[2],0.20 ng/mL
same,"sPLA2 level, Week 2, Median",[2],0.10 ng/mL
same,"sPLA2 level, Week 2, Range",[2],0.05 to 0.60 ng/mL
same,"sPLA2 level, Week 4, Mean",[2],0.14 ng/mL
same,"sPLA2 level, Week 4, Median",[2],0.05 ng/mL
same,"sPLA2 level, Week 4, Range",[2],0.05 to 0.60 ng/mL
same,"sPLA2 level, Baseline, Mean",[3],3.47 ng/mL
same,"sPLA2 level, Baseline, Median",[3],2.70 ng/mL
same,"sPLA2 level, Baseline, Range",[3],0.80 to 8.80 ng/mL
same,"sPLA2 level, Change from baseline at week 2, Mean",[3],-2.89 ng/mL
same,"sPLA2 level, Change from baseline at week 2, Median",[3],-2.50 ng/mL
same,"sPLA2 level, Change from baseline at week 2, Range",[3],-5.30 to -0.60 ng/mL
same,"sPLA2 level, Change from baseline at week 4, Mean",[3],-2.76 ng/mL
same,"sPLA2 level, Change from baseline at week 4, Median",[3],-2.15 ng/mL
same,"sPLA2 level, Change from baseline at week 4, Range",[3],-6.40 to -0.60 ng/mL
same,"sPLA2 level, Week 2, Mean",[3],0.96 ng/mL
same,"sPLA2 level, Week 2, Median",[3],0.30 ng/mL
same,"sPLA2 level, Week 2, Range",[3],0.20 to 4.00 ng/mL
same,"sPLA2 level, Week 4, Mean",[3],0.81 ng/mL
same,"sPLA2 level, Week 4, Median",[3],0.65 ng/mL
same,"sPLA2 level, Week 4, Range",[3],0.10 to 2.40 ng/mL
same,"sPLA2 level, Baseline, Mean",[4],1.80 ng/mL
same,"sPLA2 level, Baseline, Median",[4],1.80 ng/mL
same,"sPLA2 level, Baseline, Range",[4],1.80 to 1.80 ng/ml
same,"sPLA2 level, Baseline, Mean",[5],2.97 ng/mL
same,"sPLA2 level, Baseline, Median",[5],2.20 ng/mL
same,"sPLA2 level, Baseline, Range",[5],0.05 to 6.00 ng/mL
same,"sPLA2 level, Change from baseline at week 2, Mean",[5],-1.01 ng/mL
same,"sPLA2 level, Change from baseline at week 2, Median",[5],-1.80 ng/mL
same,"sPLA2 level, Change from baseline at week 2, Range",[5],−3.30 to +2.85 ng/ml
same,"sPLA2 level, Change from baseline at week 4, Mean",[5],-2.78 ng/mL
same,"sPLA2 level, Change from baseline at week 4, Median",[5],-2.70 ng/mL
same,"sPLA2 level, Change from baseline at week 4, Range",[5],-5.70 to 0.00 ng/mL
same,"sPLA2 level, Week 2, Mean",[5],1.20 ng/mL
same,"sPLA2 level, Week 2, Median",[5],0.80 ng/mL
same,"sPLA2 level, Week 2, Range",[5],0.30 to 2.90 ng/mL
same,"sPLA2 level, Week 4, Mean",[5],0.41 ng/mL
same,"sPLA2 level, Week 4, Median",[5],0.30 ng/mL
same,"sPLA2 level, Week 4, Range",[5],0.05 to 1.00 ng/mL
same,"sPLA2 level, Baseline, Mean",[6],3.85 ng/mL
same,"sPLA2 level, Baseline, Median",[6],3.85 ng/mL
same,"sPLA2 level, Baseline, Range",[6],2.80 to 4.90 ng/mL
same,"sPLA2 level, Change from baseline at week 2, Mean",[6],-1.90 ng/mL
same,"sPLA2 level, Change from baseline at week 2, Median",[6],-1.90 ng/mL
same,"sPLA2 level, Change from baseline at week 2, Range",[6],−1.90 to −1.90 ng/ml
same,"sPLA2 level, Change from baseline at week 4, Mean",[6],-3.05 ng/mL
same,"sPLA2 level, Change from baseline at week 4, Median",[6],-3.05 ng/mL
same,"sPLA2 level, Change from baseline at week 4, Range",[6],-4.40 to -1.70 ng/mL
same,"sPLA2 level, Week 2, Mean",[6],0.90 ng/mL
same,"sPLA2 level, Week 2, Median",[6],0.90 ng/mL
same,"sPLA2 level, Week 2, Range",[6],0.90 to 0.90 ng/ml
same,"sPLA2 level, Week 4, Mean",[6],0.80 ng/mL
same,"sPLA2 level, Week 4, Median",[6],0.80 ng/mL
same,"sPLA2 level, Week 4, Range",[6],0.50 to 1.10 ng/mL
same,"sPLA2 level, Baseline, Mean",[7],2.90 ng/mL
same,"sPLA2 level, Baseline, Median",[7],2.20 ng/mL
same,"sPLA2 level, Baseline, Range",[7],1.80 to 4.70 ng/mL
same,"sPLA2 level, Change from baseline at week 2, Mean",[7],-1.65 ng/mL
same,"sPLA2 level, Change from baseline at week 2, Median",[7],-1.65 ng/mL
same,"sPLA2 level, Change from baseline at week 2, Range",[7],-1.90 to -1.40 ng/mL
same,"sPLA2 level, Change from baseline at week 4, Mean",[7],-1.75 ng/mL
same,"sPLA2 level, Change from baseline at week 4, Median",[7],-1.75 ng/mL
same,"sPLA2 level, Change from baseline at week 4, Range",[7],-2.10 to -1.40 ng/mL
same,"sPLA2 level, Week 2, Mean",[7],0.33 ng/mL
same,"sPLA2 level, Week 2, Median",[7],0.30 ng/mL
same,"sPLA2 level, Week 2, Range",[7],0.30 to 0.40 ng/mL
same,"sPLA2 level, Week 4, Mean",[7],0.27 ng/mL
same,"sPLA2 level, Week 4, Median",[7],0.30 ng/mL
same,"sPLA2 level, Week 4, Range",[7],0.10 to 0.40 ng/mL
same,"sPLA2 level, Baseline, Mean",[8],3.40 ng/mL
same,"sPLA2 level, Baseline, Median",[8],3.40 ng/mL
same,"sPLA2 level, Baseline, Range",[8],3.40 to 3.40 ng/ml
same,"sPLA2 level, Change from baseline at week 2, Mean",[8],-2.10 ng/mL
same,"sPLA2 level, Change from baseline at week 2, Median",[8],-2.10 ng/mL
same,"sPLA2 level, Change from baseline at week 2, Range",[8],−2.10 to −2.10 ng/ml
same,"sPLA2 level, Change from baseline at week 4, Mean",[8],-2.20 ng/mL
same,"sPLA2 level, Change from baseline at week 4, Median",[8],-2.20 ng/mL
same,"sPLA2 level, Change from baseline at week 4, Range",[8],−2.20 to −2.20 ng/ml
same,"sPLA2 level, Week 2, Mean",[8],1.30 ng/mL
same,"sPLA2 level, Week 2, Median",[8],1.30 ng/mL
same,"sPLA2 level, Week 2, Range",[8],1.30 to 1.30 ng/ml
same,"sPLA2 level, Week 4, Mean",[8],1.20 ng/mL
same,"sPLA2 level, Week 4, Median",[8],1.20 ng/mL
same,"sPLA2 level, Week 4, Range",[8],1.20 to 1.20 ng/ml
same,"sPLA2 level, Baseline, Mean",[9],3.05 ng/mL
same,"sPLA2 level, Baseline, Median",[9],3.40 ng/mL
same,"sPLA2 level, Baseline, Range",[9],1.20 to 4.40 ng/mL
same,"sPLA2 level, Change from baseline at week 2, Mean",[9],-2.94 ng/mL
same,"sPLA2 level, Change from baseline at week 2, Median",[9],-3.50 ng/mL
same,"sPLA2 level, Change from baseline at week 2, Range",[9],-4.00 to -1.15 ng/mL
same,"sPLA2 level, Change from baseline at week 4, Mean",[9],-3.04 ng/mL
same,"sPLA2 level, Change from baseline at week 4, Median",[9],-3.70 ng/mL
same,"sPLA2 level, Change from baseline at week 4, Range",[9],-4.35 to -1.15 ng/mL
same,"sPLA2 level, Week 2, Mean",[9],0.16 ng/mL
same,"sPLA2 level, Week 2, Median",[9],0.05 ng/mL
same,"sPLA2 level, Week 2, Range",[9],0.05 to 0.40 ng/mL
same,"sPLA2 level, Week 4, Mean",[9],0.06 ng/mL
same,"sPLA2 level, Week 4, Median",[9],0.05 ng/mL
